Values after ≈ are worked out from the molar mass of the structure shown. Values joined by “and” are separate entries in the source; they are usually repeats but may differ in a detail not shown here. Equal entries are not always repeated. Where two headings read alike, the source gives them in different places. Marks after values point to notes of the source that are not given here.
Tests used:
[1] = test system: Burkholderia pseudomallei; experiment: microbe, parasite or virus in culture; format: cell-based
[2] = test system: Staphylococcus aureus ATCC 29213; experiment: microbe, parasite or virus in culture; format: cell-based
[3] = test system: Escherichia coli ATCC 25922; experiment: microbe, parasite or virus in culture; format: cell-based
[4] = test system: Pseudomonas aeruginosa ATCC 27853; experiment: microbe, parasite or virus in culture; format: cell-based
[5] = test system: B. pseudomallei strain K96243; design: species or system Burkholderia pseudomallei; conditions: in vivo
[6] = mouse, in vivo
[7] = mouse, in vivo; remark: listed apart in the source
biothreat pathogens = format: cell-based
[8] = test system: Escherichia coli, Klebsiella pneumoniae, and Pseudomonas aeruginosa; conditions: cited from earlier work

CC(C)(O/N=C(\C(=O)N[C@@H]1C(=O)N2C(C(=O)[O-])=C(C[n+]3ccccc3)CS[C@H]12)c1csc(N)n1)C(=O)O [Ceftazidime, ceftazidime, reference compound]
MIC50 [1]: 2 µg/mL (≈ 3.66 µM) | MIC90 [1]: 8 µg/mL (≈ 14.6 µM) | MIC ([1]; NCTC4845): 2 µg/mL (≈ 3.66 µM) | MIC ([2]; Staphylococcus aureus, ATCC29213): 8 µg/mL (≈ 14.6 µM) | MIC ([3]; Escherichia coli, ATCC25922): 0.12 µg/mL (≈ 0.22 µM) | MIC ([4]; Pseudomonas aeruginosa, ATCC27853): 1 µg/mL (≈ 1.83 µM) | Survival log-rank (Mantel–Cox) test P [5]: <0.0001^a | day average body weight started to decline again [5]: 11 days | day mean body weight began to recover [5]: > 5 days | survival at the end of the 29-day observation phase [5]: 20% | survival during the treatment phase [5]: 70%

C[C@@](O)(C(F)F)[C@H](NC(=O)c1ccc(C#CC#CC2CC2)cc1)C(=O)NO [LPC-233]
MIC [2]: >16 µg/mL | MIC [3]: ≤0.008 µg/mL | MIC [4]: 0.25 µg/mL (≈ 0.664 µM) | Clearance [6]: 14.7 mL/min/kg | period plasma concentration remained above MIC90 [6]: ≥ 24 h | AUCELF (0–48 h) ([6]; 100 mg/kg): 334.6 µg·h/mL | AUCplasma (0–48 h) ([6]; 100 mg/kg): 398.6 µg·h/mL | ELF penetration (AUCELF/AUCplasma, 0–48 h) ([6]; 100 mg/kg): 83.9% | concentration of the drug in ELF samples ([7]; 30 mg/kg): 100 to 400 ng/mL | increase in AUC, 100 mg/kg IP compared to oral 100 mg/kg ([7]; 100 mg/kg): 2 fold | increase in Cmax, 100 mg/kg IP compared to oral 100 mg/kg ([7]; 100 mg/kg): 2 fold | Inf fT > MIC (free time above MIC) ([7]; ip, 100 mg/kg): ≥6 h | Inf fT > MIC (free time above MIC) ([7]; po, 10 mg/kg): ≥6 h | Inf fT > MIC (free time above MIC) ([7]; po, 30 mg/kg): ≥6 h | Inf fT > MIC (free time above MIC) ([7]; po, 100 mg/kg): ≥6 h | MIC90 values for biothreat pathogens, folds lower than previous compounds such as ACHN-975 (biothreat pathogens): 4–8 folds | P, rescue of mice from infection in comparison with the vehicle [5]: < 0.0001 | average body weight after recovery [5]: maintained a steady average weight to the end of the study | bacterial burden in the lungs at study termination compared to ceftazidime-treated animals [5]: reduction of CFUs in the lungs | day average body weight declined again [5]: 15 days and 25 days | day mean body weight began to recover (turning point) [5]: 4 days and 2 days | final survival rate at the end of the observation period [5]: 60% and 80% and 90% | median time to death [5]: 6.3 days | recovery of average body weight [5]: did not recover | survival [5]: did not support survival | survival during the treatment phase [5]: 100% | P range, survival/times to death versus the ceftazidime group ([5]; 30 mg/kg): 0.001–0.05 | time following the last dose without deaths ([5]; 30 mg/kg): 15 days | Survival log-rank (Mantel–Cox) test P ([5]; 90 mg/kg): 0.5 | Survival log-rank (Mantel–Cox) test P ([5]; ip, 90 mg/kg): <0.0001^a and 0.009^a | Survival log-rank (Mantel–Cox) test P ([5]; po, 10 mg/kg): <0.0001^a and 0.008^a | Survival log-rank (Mantel–Cox) test P ([5]; po, 30 mg/kg): <0.0001^a and 0.05^a | Survival log-rank (Mantel–Cox) test P ([5]; po, 90 mg/kg): <0.0001^a and 0.001^a | predicted MIC shift based on plasma protein unbound fraction [8]: ~ 30 fold | shift of MIC values in the presence of 50% mouse plasma [8]: 4–9 fold

Reference: article PMC11784359 (Antimicrobial Agents and Chemotherapy, 2024)
